Laboratory results from patent publication US7993917B2, “Method for obtaining a cellular product from a cell or a tissue using protein-free medium” (The United States of America as represented by the …, priority 1999, dated 2011).
Read-outs that look alike come from different tables or passages of the source.

System: P. falciparum isolates
Experiment: 48 hour parasite lactate dehydrogenase (48 hr pLDH) drug sensitivity assay after transport from the field on ice in BAM
Type: cell-based
Conditions: Plasmodium falciparum
Description: Malaria parasites fail to thrive after removal from the patient. They can be preserved either by cryopreservation in liquid nitrogen or storage at −70° C. These techniques used for long term storage are too labor-intensive and expensive for routine use. […] Transit time can vary between a few hours to less than a week. Because of the clinical demand for such a service, BAM was evaluated in the field as a transport medium for malaria parasites.

[1] = 24 h, isolate 1107, 1 day in transit, read-out: IC50
[2] = 24 h, isolate 1236, 1 day in transit, read-out: IC50
[3] = 24 h, isolate A116, 1 day in transit, read-out: IC50
[4] = 24 h, isolate A246, 1 day in transit, read-out: IC50
[5] = 24 h, isolate A296, 1 day in transit, read-out: IC50
[6] = 24 h, isolate B236, 1 day in transit, read-out: IC50
[7] = 24 h, isolate C67, 1 day in transit, read-out: IC50
[8] = 24 h, isolate C107, 1 day in transit, read-out: IC50
[9] = 24 h, isolate C166, 1 day in transit, read-out: IC50
[10] = 24 h, isolate D86, 1 day in transit, read-out: IC50
[11] = 24 h, isolate D107, 1 day in transit, read-out: IC50
[12] = 24 h, isolate D296, 1 day in transit, read-out: IC50
[13] = 24 h, isolate E107, 1 day in transit, read-out: IC50
[14] = 24 h, isolate F166, 1 day in transit, read-out: IC50
[15] = 24 h, isolate F296, 1 day in transit, read-out: IC50
[16] = 24 h, isolate G17, 1 day in transit, read-out: IC50
[17] = 24 h, isolate G236, 1 day in transit, read-out: IC50
[18] = 24 h, isolate H107, 1 day in transit, read-out: IC50
[19] = 24 h, isolate J107, 1 day in transit, read-out: IC50
[20] = 24 h, isolate K107, 1 day in transit, read-out: IC50
[21] = 24 h, isolate KilH, 1 day in transit, read-out: IC50
[22] = 24 h, isolate KilS, 1 day in transit, read-out: IC50
[23] = 24 h, isolate L107, 1 day in transit, read-out: IC50
[24] = 24 h, isolate L137, 1 day in transit, read-out: IC50
[25] = 48 h, isolate B116, 2 days in transit, read-out: IC50
[26] = 48 h, isolate B296, 2 days in transit, read-out: IC50
[27] = 48 h, isolate C108, 2 days in transit, read-out: IC50
[28] = 48 h, isolate G296, 2 days in transit, read-out: IC50
[29] = 48 h, isolate H236, 2 days in transit, read-out: IC50
[30] = 48 h, isolate R107, 2 days in transit, read-out: IC50

Compound CCN(CC)Cc1cc(Nc2ccnc3cc(Cl)ccc23)ccc1O [Amodiaquine, amodiaquine] has an IC50 [1] of 6.6 nM, an IC50 [2] of 26.8 nM and an IC50 (24 h, isolate A67, 1 day in transit, read-out: IC50) of 37.6 nM. It also gave an IC50 (24 h, isolate A107, 1 day in transit, read-out: IC50) of 91.8 nM, an IC50 [3] of 70.2 nM and an IC50 [4] of 17 nM. For the same compound, the IC50 [5] was 152 nM, the IC50 [6] was 28.8 nM and the IC50 [7] was 117 nM. It also gave an IC50 [8] of 179 nM, an IC50 [9] of 68 nM and an IC50 [10] of 29.8 nM. It also gave an IC50 [11] of 178 nM, an IC50 [12] of 180 nM and an IC50 [13] of 152 nM. It also gave an IC50 (24 h, isolate F107, 1 day in transit, read-out: IC50) of 23.6 nM, an IC50 [14] of 91.6 nM and an IC50 [15] of 202 nM. The IC50 [16] was 40.8 nM, the IC50 [17] was 33.8 nM and the IC50 [18] was 100 nM. The IC50 [19] was 12.6 nM, the IC50 [20] was 35.4 nM and the IC50 [21] was 125 nM. It also gave an IC50 [22] of 128 nM, an IC50 [23] of 18.4 nM and an IC50 [24] of 150 nM. For the same compound, the IC50 (48 h, isolate B106, 2 days in transit, read-out: IC50) was 99.2 nM, the IC50 [25] was 145 nM and the IC50 [26] was 53.4 nM. It also gave an IC50 [27] of 86.2 nM, an IC50 (48 h, isolate D166, 2 days in transit, read-out: IC50) of 6.6 nM and an IC50 [28] of 179 nM. The IC50 [29] was 8.6 nM and the IC50 [30] was 79.8 nM.
For CCN(CC)CCCC(C)Nc1ccnc2cc(Cl)ccc12 (stereo not shown) [Chloroquine, chloroquine], the IC50 (24 h, isolate 1107, 1 day in transit) was 160 nM, the IC50 (24 h, isolate 1236, 1 day in transit) was 22.2 nM and the IC50 (24 h, isolate A67, 1 day in transit) was 191 nM. It also gave an IC50 (24 h, isolate A107, 1 day in transit) of 818 nM, an IC50 (24 h, isolate A116, 1 day in transit) of 58.4 nM and an IC50 (24 h, isolate A246, 1 day in transit) of 20 nM. The IC50 (24 h, isolate A296, 1 day in transit) was 115 nM, the IC50 (24 h, isolate B236, 1 day in transit) was 90.6 nM and the IC50 (24 h, isolate C67, 1 day in transit) was 143 nM. It also gave an IC50 (24 h, isolate C107, 1 day in transit) of 554 nM, an IC50 (24 h, isolate C166, 1 day in transit) of 30.8 nM and an IC50 (24 h, isolate D86, 1 day in transit) of 33.2 nM. For the same compound, the IC50 (24 h, isolate D107, 1 day in transit) was 502 nM, the IC50 (24 h, isolate E67, 1 day in transit) was 50 nM and the IC50 (24 h, isolate E107, 1 day in transit) was 554 nM. It also gave an IC50 (24 h, isolate F107, 1 day in transit) of 818 nM, an IC50 (24 h, isolate F166, 1 day in transit) of 29.8 nM and an IC50 (24 h, isolate F296, 1 day in transit) of 66.4 nM. The IC50 (24 h, isolate G17, 1 day in transit) was 52 nM, the IC50 (24 h, isolate G236, 1 day in transit) was 330 nM and the IC50 (24 h, isolate H107, 1 day in transit) was 180 nM. The IC50 (24 h, isolate J107, 1 day in transit) was 294 nM, the IC50 (24 h, isolate K107, 1 day in transit) was 300 nM and the IC50 (24 h, isolate KilH, 1 day in transit) was 248 nM. It also gave an IC50 (24 h, isolate KilS, 1 day in transit) of 122 nM, an IC50 (24 h, isolate L107, 1 day in transit) of 224 nM and an IC50 (24 h, isolate L137, 1 day in transit) of 320 nM. It also gave an IC50 (48 h, isolate B106, 2 days in transit) of 294 nM, an IC50 (48 h, isolate B116, 2 days in transit) of 35.2 nM and an IC50 (48 h, isolate B296, 2 days in transit) of 664 nM. For the same compound, the IC50 (48 h, isolate C108, 2 days in transit) was 256 nM, the IC50 (48 h, isolate G296, 2 days in transit) was 400 nM and the IC50 (48 h, isolate H236, 2 days in transit) was 91.4 nM. It also gave an IC50 (48 h, isolate R107, 2 days in transit) of 78.8 nM.
With C=C[C@H]1C[N@@]2CC[C@H]1C[C@H]2[C@H](O)c1ccnc2ccc(OC)cc12 [Quinine, quinine] the IC50 [1] was 40 nM, the IC50 [2] was 0.04 nM and the IC50 [3] was 152 nM. The IC50 [4] was 16.3 nM, the IC50 [5] was 476 nM and the IC50 [6] was 183 nM. It also gave an IC50 [7] of 136 nM, an IC50 [8] of 96.4 nM and an IC50 [9] of 165 nM. The IC50 [10] was 175 nM, the IC50 [11] was 264 nM and the IC50 [12] was 999 nM. For the same compound, the IC50 (24 h, isolate E67, 1 day in transit, read-out: IC50) was 108 nM, the IC50 [13] was 230 nM and the IC50 [14] was 93.2 nM. For the same compound, the IC50 [15] was 99.2 nM, the IC50 [16] was 143 nM and the IC50 [17] was 304 nM. The IC50 [18] was 28 nM, the IC50 [19] was 55.4 nM and the IC50 [20] was 354 nM. It also gave an IC50 [21] of 378 nM, an IC50 [22] of 187 nM and an IC50 [23] of 58.8 nM. The IC50 [24] was 134 nM, the IC50 [25] was 136 nM and the IC50 [26] was 1.8 nM. It also gave an IC50 [27] of 160 nM, an IC50 [28] of 306 nM and an IC50 [29] of 208 nM. The IC50 [30] was 472 nM.
